Test results from ChEMBL document CHEMBL1201862, “PubChem BioAssay data set” (2004).
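How tested: cells in 96-well plates exposed to compound for 48 hours at five concentrations. Here, GI50 denotes the concentration required for 50% inhibition of growth.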 Active and inactive are the calls of the source. Cut-off read from the data, not from the text of the source: active = GI50 up to about 1.1 µM and inactive = higher.

Columns and labels:
Test in all cases: NCI tumour cell line growth inhibition, 48 h
KM12 = test system: KM12
NCI-H23 = test system: NCI-H23
CCRF-CEM = test system: CCRF-CEM
SF-539 = test system: SF-539
SK-OV-3 = test system: SK-OV-3
SNB-19 = test system: SNB-19
M14 = test system: M14
IGROV-1 = test system: IGROV-1
MDA-MB-231 = test system: MDA-MB-231
SNB-75 = test system: SNB-75
HT-29 = test system: HT-29
UO-31 = test system: UO-31
SK-MEL-28 = test system: SK-MEL-28
OVCAR-4 = test system: OVCAR-4
MDA-N = test system: MDA-N
SK-MEL-5 = test system: SK-MEL-5
UACC-62 = test system: UACC-62
HCT-116 = test system: HCT-116
PC-3 = test system: PC-3
HCC 2998 = test system: HCC 2998
LOX IMVI = test system: LOX IMVI
HL-60 = test system: HL-60
SN12C = test system: SN12C
NCI-H460 = test system: NCI-H460
ACHN = test system: ACHN
DU-145 = test system: DU-145
SR = test system: SR
HOP-62 = test system: HOP-62
NCI-H522 = test system: NCI-H522
OVCAR-3 = test system: OVCAR-3
HCT-15 = test system: HCT-15
786-0 = test system: 786-0
Hs-578T = test system: Hs-578T
RXF 393 = test system: RXF 393
T47D = test system: T47D
TK-10 = test system: TK-10
OVCAR-8 = test system: OVCAR-8
SW-620 = test system: SW-620
HOP-92 = test system: HOP-92
OVCAR-5 = test system: OVCAR-5
Malme-3M = test system: Malme-3M
MCF7 = test system: MCF7
BT-549 = test system: BT-549
A498 = test system: A498
SF-295 = test system: SF-295
UACC-257 = test system: UACC-257
MDA-MB-435 = test system: MDA-MB-435
SF-268 = test system: SF-268
MOLT-4 = test system: MOLT-4
K562 = test system: K562
EKVX = test system: EKVX
SK-MEL-2 = test system: SK-MEL-2
RPMI-8226 = test system: RPMI-8226
CAKI-1 = test system: CAKI-1
A549 = test system: A549
NCI-H226 = test system: NCI-H226
U-251 = test system: U-251
COLO 205 = test system: COLO 205
NCI/ADR-RES = test system: NCI/ADR-RES

In the case of `C[C@H](CCc1nc(C#N)c(N)o1)[C@H]1CC[C@H]2[C@@H]3CCC4C[C@@H](O)CC[C@]4(C)[C@H]3C[C@@H](O)[C@]12C` (stereo not given in full), the GI50 (KM12) is reported as 10.7 µM (inactive), the GI50 (NCI-H23) is reported as 17.3 µM (inactive) and the GI50 (CCRF-CEM) is reported as 0.143 µM (active). The GI50 (SF-539) was 10.2 µM (inactive), the GI50 (SK-OV-3) was 14.3 µM (inactive) and the GI50 (SNB-19) was 16.4 µM (inactive). For the same compound, the GI50 (M14) was 15.4 µM (inactive), the GI50 (IGROV-1) was 6.24 µM (inactive) and the GI50 (MDA-MB-231) was 17.1 µM (inactive). The GI50 (SNB-75) was 10.3 µM (inactive), the GI50 (HT-29) was 13.5 µM (inactive) and the GI50 (UO-31) was 4.53 µM (inactive). For the same compound, the GI50 (SK-MEL-28) was 13.1 µM (inactive), the GI50 (OVCAR-4) was 1.03 µM (active) and the GI50 (MDA-N) was 13.9 µM (inactive). For the same compound, the GI50 (SK-MEL-5) was 12.6 µM (inactive), the GI50 (UACC-62) was 12.1 µM (inactive) and the GI50 (HCT-116) was 12.7 µM (inactive). The GI50 (PC-3) was 4.33 µM (inactive), the GI50 (HCC 2998) was 16.6 µM (inactive) and the GI50 (LOX IMVI) was 7.71 µM (inactive). The GI50 (HL-60) was 0.475 µM (active), the GI50 (SN12C) was 10.7 µM (inactive) and the GI50 (NCI-H460) was 14.6 µM (inactive). For the same compound, the GI50 (ACHN) was 14.9 µM (inactive), the GI50 (DU-145) was 14.5 µM (inactive) and the GI50 (SR) was 3.05 µM (inactive). For the same compound, the GI50 (HOP-62) was 18.9 µM (inactive), the GI50 (NCI-H522) was 3.65 µM (inactive) and the GI50 (OVCAR-3) was 11.9 µM (inactive). The GI50 (HCT-15) was 14.7 µM, the GI50 (786-0) was 10.8 µM (inactive) and the GI50 (Hs-578T) was 8.55 µM (inactive). The GI50 (RXF 393) was 9.27 µM (inactive), the GI50 (T47D) was 14.5 µM (inactive) and the GI50 (TK-10) was 14.7 µM (inactive). The GI50 (OVCAR-8) was 4.56 µM (inactive), the GI50 (SW-620) was 12.6 µM (inactive) and the GI50 (HOP-92) was 14.4 µM (inactive). The GI50 (OVCAR-5) was 18.6 µM (inactive), the GI50 (Malme-3M) was 14.4 µM (inactive) and the GI50 (MCF7) was 14.6 µM (inactive). The GI50 (BT-549) was 2.65 µM (inactive), the GI50 (A498) was 18.7 µM (inactive) and the GI50 (SF-295) was 14.4 µM (inactive). The GI50 (UACC-257) was 7.73 µM (inactive), the GI50 (MDA-MB-435) was 15.1 µM (inactive) and the GI50 (SF-268) was 11.3 µM (inactive). The GI50 (MOLT-4) was 4.02 µM (inactive), the GI50 (K562) was 4.46 µM (inactive) and the GI50 (EKVX) was 12.9 µM (inactive). The GI50 (SK-MEL-2) was 16.3 µM (inactive), the GI50 (RPMI-8226) was 1.73 µM (inactive) and the GI50 (CAKI-1) was 14.4 µM (inactive). The GI50 (A549) was 5.89 µM (inactive), the GI50 (NCI-H226) was 8.38 µM (inactive) and the GI50 (U-251) was 12.5 µM (inactive). The GI50 (COLO 205) was 12.7 µM (inactive) and the GI50 (NCI/ADR-RES) was 8.49 µM (inactive).
`Cc1n[nH]c(=O)n1-c1cccnc1` was tested, and the GI50 (KM12) was > 100 µM (inactive), the GI50 (NCI-H23) was > 100 µM (inactive) and the GI50 (CCRF-CEM) was > 100 µM (inactive). For the same compound, the GI50 (SF-539) was > 100 µM (inactive), the GI50 (SNB-19) was > 100 µM (inactive) and the GI50 (M14) was > 100 µM (inactive). The GI50 (IGROV-1) was > 100 µM (inactive), the GI50 (MDA-MB-231) was > 100 µM (inactive) and the GI50 (SNB-75) was > 100 µM (inactive). For the same compound, the GI50 (HT-29) was > 100 µM (inactive), the GI50 (UO-31) was > 100 µM (inactive) and the GI50 (SK-MEL-28) was > 100 µM (inactive). The GI50 (OVCAR-4) was > 100 µM (inactive), the GI50 (MDA-N) was > 100 µM (inactive) and the GI50 (SK-MEL-5) was > 100 µM (inactive). The GI50 (HCT-116) was > 100 µM (inactive), the GI50 (PC-3) was > 100 µM (inactive) and the GI50 (HCC 2998) was > 100 µM (inactive). For the same compound, the GI50 (LOX IMVI) was > 100 µM (inactive), the GI50 (HL-60) was > 100 µM (inactive) and the GI50 (SN12C) was > 100 µM (inactive). The GI50 (NCI-H460) was > 100 µM (inactive), the GI50 (ACHN) was > 100 µM (inactive) and the GI50 (DU-145) was > 100 µM (inactive). The GI50 (SR) was > 100 µM (inactive), the GI50 (HOP-62) was > 100 µM (inactive) and the GI50 (NCI-H522) was > 100 µM (inactive). For the same compound, the GI50 (OVCAR-3) was > 100 µM (inactive), the GI50 (HCT-15) was > 100 µM and the GI50 (786-0) was > 100 µM (inactive). For the same compound, the GI50 (Hs-578T) was > 100 µM (inactive), the GI50 (RXF 393) was > 100 µM (inactive) and the GI50 (T47D) was > 100 µM (inactive). The GI50 (TK-10) was > 100 µM (inactive), the GI50 (OVCAR-8) was > 100 µM (inactive) and the GI50 (SW-620) was > 100 µM (inactive). For the same compound, the GI50 (HOP-92) was > 100 µM (inactive), the GI50 (OVCAR-5) was > 100 µM (inactive) and the GI50 (Malme-3M) was > 100 µM (inactive). For the same compound, the GI50 (MCF7) was > 100 µM (inactive), the GI50 (BT-549) was > 100 µM (inactive) and the GI50 (A498) was > 100 µM (inactive). For the same compound, the GI50 (SF-295) was > 100 µM (inactive), the GI50 (UACC-257) was > 100 µM (inactive) and the GI50 (MDA-MB-435) was > 100 µM (inactive). The GI50 (SF-268) was > 100 µM (inactive), the GI50 (MOLT-4) was > 100 µM (inactive) and the GI50 (K562) was > 100 µM (inactive). For the same compound, the GI50 (EKVX) was > 100 µM (inactive), the GI50 (RPMI-8226) was > 100 µM (inactive) and the GI50 (CAKI-1) was > 100 µM (inactive). The GI50 (A549) was > 100 µM (inactive), the GI50 (NCI-H226) was > 100 µM (inactive) and the GI50 (U-251) was > 100 µM (inactive). The GI50 (COLO 205) was > 100 µM (inactive) and the GI50 (NCI/ADR-RES) was > 100 µM (inactive).
